Measured values reported in EPA's ToxRefDB 2.

Legend:
rat [1] = settings: Subchronic oral toxicity in rodents, other, Feed, dose end: 6 week, group: systemic, systemic / in life observation / body weight / body weight
mouse [2] = settings: Carcinogenicity; b6c3f1; Oral; Feed; dose end: 78 week; group: systemic; systemic / in life observation / mortality / mortality
dog = settings: Multigenerational reproductive toxicity study; beagle; Oral; Feed; dose end: 3 generation; group: reproductive; reproductive / reproductive performance / estrous cycle / abnormal
mouse [3] = settings: Multigenerational reproductive toxicity study, other, Oral, Feed, dose end: 5 generation
rat [4] = settings: Multigenerational reproductive toxicity study, sprague dawley, Oral, Feed, dose end: 2 generation
rat [5] = settings: Carcinogenicity, other, Oral, Feed, dose end: 78 week, group: systemic
mouse [6] = settings: Subchronic oral toxicity in rodents, b6c3f1, Feed, dose end: 6 week, group: systemic
rat [7] = settings: Multigenerational reproductive toxicity study, sprague dawley, Oral, Feed, dose end: 2 generation; remark: listed apart in the source
rat [8] = settings: Carcinogenicity, fischer, Oral, Feed, dose end: 103 week, group: systemic
rat [9] = settings: Subchronic oral toxicity in rodents, fischer, Feed, dose end: 13 week, group: systemic
mouse [10] = settings: Subchronic oral toxicity in rodents, b6c3f1, Feed, dose end: 13 week, group: systemic
mouse [11] = settings: Carcinogenicity, b6c3f1, Oral, Feed, dose end: 103 week, group: systemic
rat [12] = settings: Subchronic oral toxicity in rodents, fischer, Feed, dose end: 13 week, group: systemic; remark: listed apart in the source
mouse [13] = settings: Combined chronic toxicity/carcinogenicity; b6c3f1; Oral; Feed; dose end: 2 year; group: systemic; systemic / in life observation / body weight / body weight
mouse [14] = settings: Prenatal developmental toxicity study, cd1, Oral, Gavage/Intubation, dose end: 14 GD
rat [15] = settings: Combined chronic toxicity/carcinogenicity, fischer, Oral, Feed, dose end: 2 year, group: systemic
rat [16] = settings: Prenatal developmental toxicity study, sprague dawley, Oral, Gavage/Intubation, dose end: 15 GD
mouse [17] = settings: Subchronic oral toxicity in rodents, b6c3f1, Feed, dose end: 13 week, group: systemic; remark: listed apart in the source
mouse [18] = settings: Prenatal developmental toxicity study, cd1, Oral, Gavage/Intubation, dose end: 15 GD
rat [19] = settings: Combined chronic toxicity/carcinogenicity; fischer; Oral; Feed; dose end: 365 day; group: systemic; systemic / pathology gross / full gross necropsy / adenoma
mouse [20] = settings: Combined chronic toxicity/carcinogenicity; other; Oral; Feed; dose end: 365 day; group: systemic; systemic / pathology gross / full gross necropsy / lymphoma malignant
[21] = group: offspring, systemic / pathology microscopic / blood / leukemia + systemic / pathology microscopic / blood vessel / [other] + systemic / pathology …
[22] = group: parental, systemic / pathology microscopic / blood vessel / [other] + systemic / pathology microscopic / lung / carcinoma + systemic / hematology / …
[23] = group: offspring, systemic / in life observation / clinical signs / [other]
[24] = group: parental, systemic / organ weight / liver / relative to body weight
[25] = systemic / in life observation / body weight / body weight
[26] = systemic / in life observation / clinical signs / abdominogenital staining + systemic / in life observation / clinical signs / hunched …
[27] = systemic / in life observation / body weight / body weight gain
[28] = systemic / in life observation / body weight / body weight gain + systemic / in life observation / mortality / mortality
[29] = group: offspring, developmental / offspring survival late / viability index / viability index + developmental / developmental landmark / preputial separation…
[30] = group: parental, systemic / organ weight / adrenal gland / relative to body weight + systemic / organ weight / kidney / relative to body weight + systemic / …
[31] = systemic / pathology microscopic / liver / basophilic focus + systemic / pathology microscopic / liver / eosinophilic focus + systemic / …
[32] = systemic / pathology microscopic / liver / hyperplasia + systemic / pathology microscopic / liver / basophilic focus + systemic / pathology …
[33] = systemic / in life observation / body weight / body weight + systemic / pathology microscopic / kidney / pigmentation + systemic / in life …
[34] = systemic / pathology microscopic / kidney / hemosiderosis + systemic / pathology microscopic / liver / hemosiderosis + systemic / pathology …
[35] = systemic / in life observation / body weight / body weight + systemic / in life observation / clinical signs / aggressive behavior + …
[36] = group: developmental, systemic / in life observation / body weight / fetal weight
[37] = group: developmental, systemic / in life observation / body weight / fetal weight + developmental / developmental malformation / mouth / jaw / cleft palate
[38] = group: maternal, systemic / in life observation / body weight / body weight gain
[39] = group: maternal, systemic / in life observation / body weight / body weight gain + systemic / in life observation / body weight / body weight + systemic / in…
[40] = systemic / pathology microscopic / liver / granuloma
[41] = systemic / pathology microscopic / liver / granuloma + systemic / pathology microscopic / pituitary gland / adenoma
[42] = group: developmental, developmental / developmental malformation / kidney / hydronephrosis + developmental / developmental malformation / ureter / hydroureter + …
[43] = group: maternal, systemic / in life observation / body weight / body weight + systemic / in life observation / body weight / body weight gain + systemic / in…
[44] = systemic / in life observation / body weight / body weight + systemic / in life observation / clinical signs / fur (altered appearance) + …
[45] = group: developmental, developmental / developmental malformation / mouth / jaw / cleft palate + systemic / in life observation / body weight / fetal weight
[46] = group: maternal, systemic / in life observation / body weight / body weight gain + systemic / in life observation / body weight / body weight + systemic / …

Clc1ccc(C(c2ccc(Cl)cc2)C(Cl)(Cl)Cl)cc1 [p,p'-DDT]
LEL (rat [1]): 28.1 mg/kg/day | LOAEL (rat [1]): 28.1 mg/kg/day | NEL (rat [1]): 15.8 mg/kg/day | NOAEL (rat [1]): 15.8 mg/kg/day | LEL (mouse [2]): 26.2 mg/kg/day | LOAEL (mouse [2]): > 26.2 mg/kg/day | NEL (mouse [2]): 13.1 mg/kg/day | NOAEL (mouse [2]): ≥ 26.2 mg/kg/day | LEL (dog): 1 mg/kg/day | LOAEL (dog): > 10 mg/kg/day | NEL (dog): < 1 mg/kg/day | NOAEL (dog): ≥ 10 mg/kg/day | LEL (mouse [3]; [21]): 0.55 mg/kg/day | LOAEL (mouse [3]; [21]): > 0.55 mg/kg/day | NEL (mouse [3]; [21]): < 0.55 mg/kg/day | NOAEL (mouse [3]; [21]): ≥ 0.55 mg/kg/day | LEL (mouse [3]; [22]): 0.55 mg/kg/day | LOAEL (mouse [3]; [22]): > 0.55 mg/kg/day | NEL (mouse [3]; [22]): < 0.55 mg/kg/day | NOAEL (mouse [3]; [22]): ≥ 0.55 mg/kg/day | LEL (rat [4]; [23]): 10 mg/kg/day | LOAEL (rat [4]; [23]): > 10 mg/kg/day | NEL (rat [4]; [23]): 1 mg/kg/day | NOAEL (rat [4]; [23]): ≥ 10 mg/kg/day | LEL (rat [4]; [24]): 10 mg/kg/day | LOAEL (rat [4]; [24]): > 10 mg/kg/day | NEL (rat [4]; [24]): 1 mg/kg/day | NOAEL (rat [4]; [24]): ≥ 10 mg/kg/day | LOAEL (rat [5]; [25]): 21 mg/kg/day | NOAEL (rat [5]; systemic / in life observation / body weight / body weight + systemic / in life observation / clinical signs / abdominogenital staining + …): 10.5 mg/kg/day | LEL (rat [5]; [26]): 10.5 mg/kg/day | NEL (rat [5]; [26]): < 10.5 mg/kg/day | LEL (mouse [6]; [27]): 2.7 mg/kg/day | NEL (mouse [6]; [27]): < 2.7 mg/kg/day | LOAEL (mouse [6]; [28]): > 26.7 mg/kg/day | NOAEL (mouse [6]; [28]): ≥ 26.7 mg/kg/day | LEL (rat [7]; [29]): 25 mg/kg/day | LOAEL (rat [7]; [29]): > 25 mg/kg/day | NEL (rat [7]; [29]): 3.44 mg/kg/day | NOAEL (rat [7]; [29]): ≥ 25 mg/kg/day | LOAEL (rat [7]; [30]): > 25 mg/kg/day | NEL (rat [7]; [30]): 0.343 mg/kg/day | NOAEL (rat [7]; [30]): ≥ 25 mg/kg/day | LEL (rat [7]; group: parental, systemic / organ weight / liver / absolute + systemic / organ weight / liver / relative to body weight + systemic / pathology microscopic / …): 3.44 mg/kg/day

Oc1ccc2ccccc2c1N=Nc1ccccc1 [C.I. Solvent Yellow 14]
LOAEL (rat [8]; [31]): 25 mg/kg/day | NOAEL (rat [8]; [31]): 12.5 mg/kg/day | LEL (rat [8]; [32]): 12.5 mg/kg/day | NEL (rat [8]; [32]): < 12.5 mg/kg/day | NEL (rat [9]; [33]): 12.5 mg/kg/day | NOAEL (rat [9]; [33]): 25 mg/kg/day | LOAEL (rat [9]; systemic / in life observation / body weight / body weight + systemic / pathology microscopic / kidney / pigmentation + systemic / pathology…): 50 mg/kg/day | LEL (rat [9]; systemic / pathology microscopic / kidney / pigmentation): 25 mg/kg/day | LOAEL (mouse [10]; [34]): 300 mg/kg/day | NEL (mouse [10]; [34]): 75 mg/kg/day | NOAEL (mouse [10]; [34]): 150 mg/kg/day | LEL (mouse [10]; systemic / pathology microscopic / spleen / hemosiderosis): 150 mg/kg/day | LEL (mouse [11]; [25]): 75 mg/kg/day | LOAEL (mouse [11]; [25]): 150 mg/kg/day | NEL (mouse [11]; [25]): < 75 mg/kg/day | NOAEL (mouse [11]; systemic / in life observation / body weight / body weight + systemic / in life observation / body weight / body weight gain): 75 mg/kg/day

CN(C)CCOC(c1ccccc1)c1ccccc1.Cl [Diphenhydramine hydrochloride]
LOAEL (rat [12]; [25]): 31.3 mg/kg/day | NEL (rat [12]; [35]): 7.8 mg/kg/day | NOAEL (rat [12]; [35]): 15.7 mg/kg/day | LEL (rat [12]; systemic / pathology microscopic / liver / vacuolization cytoplasmic): 15.7 mg/kg/day | LEL (mouse [13]): 21 mg/kg/day | LOAEL (mouse [13]): 46 mg/kg/day | NEL (mouse [13]): < 21 mg/kg/day | NOAEL (mouse [13]): 21 mg/kg/day | LEL (mouse [14]; [36]): 80 mg/kg/day | NEL (mouse [14]; [36]): < 80 mg/kg/day | LOAEL (mouse [14]; [37]): > 200 mg/kg/day | NOAEL (mouse [14]; [37]): ≥ 200 mg/kg/day | LEL (mouse [14]; [38]): 80 mg/kg/day | NEL (mouse [14]; [38]): < 80 mg/kg/day | LOAEL (mouse [14]; [39]): > 200 mg/kg/day | NOAEL (mouse [14]; [39]): ≥ 200 mg/kg/day | LEL (rat [15]; [40]): 7 mg/kg/day | NEL (rat [15]; [40]): < 7 mg/kg/day | LOAEL (rat [15]; [41]): > 15 mg/kg/day | NOAEL (rat [15]; [41]): ≥ 15 mg/kg/day | LEL (rat [16]; [42]): 100 mg/kg/day | LOAEL (rat [16]; [42]): > 100 mg/kg/day | NEL (rat [16]; [42]): 50 mg/kg/day | NOAEL (rat [16]; [42]): ≥ 100 mg/kg/day | LEL (rat [16]; [43]): 100 mg/kg/day | LOAEL (rat [16]; [43]): > 100 mg/kg/day | NEL (rat [16]; [43]): 50 mg/kg/day | NOAEL (rat [16]; [43]): ≥ 100 mg/kg/day | LOAEL (mouse [17]; [25]): 93.8 mg/kg/day | LEL (mouse [17]; [44]): 93.8 mg/kg/day | NEL (mouse [17]; [44]): 47 mg/kg/day | NOAEL (mouse [17]; [44]): 47 mg/kg/day | LEL (mouse [18]; group: developmental, developmental / developmental malformation / mouth / jaw / cleft palate): 80 mg/kg/day | LOAEL (mouse [18]; [45]): > 160 mg/kg/day | NEL (mouse [18]; [45]): 40 mg/kg/day | NOAEL (mouse [18]; [45]): ≥ 160 mg/kg/day | LEL (mouse [18]; [38]): 80 mg/kg/day | LOAEL (mouse [18]; [46]): > 160 mg/kg/day | NEL (mouse [18]; [46]): 40 mg/kg/day | NOAEL (mouse [18]; [46]): ≥ 160 mg/kg/day

NC(N)=O [Urea]
LEL (rat [19]): 225 mg/kg/day | LOAEL (rat [19]): > 225 mg/kg/day | NEL (rat [19]): < 225 mg/kg/day | NOAEL (rat [19]): ≥ 225 mg/kg/day | LEL (mouse [20]): 675 mg/kg/day | LOAEL (mouse [20]): > 675 mg/kg/day | NEL (mouse [20]): < 675 mg/kg/day | NOAEL (mouse [20]): ≥ 675 mg/kg/day
